Data set [1] concerns the target T1, Methylosinus trichosporium OB3b soluble methane monooxygenase, complete system (hydroxylase, component B, reductase) (Methylosinus trichosporium, UniProt P27353).
T1 sequence (P27353 1-526): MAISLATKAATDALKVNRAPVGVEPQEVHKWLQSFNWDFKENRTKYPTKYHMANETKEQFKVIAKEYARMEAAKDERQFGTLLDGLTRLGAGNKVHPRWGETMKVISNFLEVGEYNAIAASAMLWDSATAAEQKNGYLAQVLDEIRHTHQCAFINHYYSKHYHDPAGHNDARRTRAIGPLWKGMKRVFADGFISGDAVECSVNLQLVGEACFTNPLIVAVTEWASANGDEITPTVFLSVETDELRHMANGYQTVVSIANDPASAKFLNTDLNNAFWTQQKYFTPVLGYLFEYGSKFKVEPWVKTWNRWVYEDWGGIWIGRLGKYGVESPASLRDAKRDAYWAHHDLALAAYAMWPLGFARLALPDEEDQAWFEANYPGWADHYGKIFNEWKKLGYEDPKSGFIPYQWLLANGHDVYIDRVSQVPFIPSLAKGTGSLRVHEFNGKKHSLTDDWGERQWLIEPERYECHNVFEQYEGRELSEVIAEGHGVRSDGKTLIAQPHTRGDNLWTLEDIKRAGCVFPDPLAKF
T1 sequence (P27354 1-394 partner): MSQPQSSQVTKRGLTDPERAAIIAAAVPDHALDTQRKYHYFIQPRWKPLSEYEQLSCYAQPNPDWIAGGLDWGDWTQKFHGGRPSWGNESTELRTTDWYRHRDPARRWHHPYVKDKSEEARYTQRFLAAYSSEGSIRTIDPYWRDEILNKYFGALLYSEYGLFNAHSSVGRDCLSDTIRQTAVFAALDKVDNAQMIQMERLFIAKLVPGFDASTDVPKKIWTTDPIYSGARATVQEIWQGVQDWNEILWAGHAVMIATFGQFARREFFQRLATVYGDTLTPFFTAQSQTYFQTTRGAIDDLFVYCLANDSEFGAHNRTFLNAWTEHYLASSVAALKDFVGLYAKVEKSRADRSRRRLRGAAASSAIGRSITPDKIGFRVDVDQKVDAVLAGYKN
T1 sequence (P27355 1-169 partner): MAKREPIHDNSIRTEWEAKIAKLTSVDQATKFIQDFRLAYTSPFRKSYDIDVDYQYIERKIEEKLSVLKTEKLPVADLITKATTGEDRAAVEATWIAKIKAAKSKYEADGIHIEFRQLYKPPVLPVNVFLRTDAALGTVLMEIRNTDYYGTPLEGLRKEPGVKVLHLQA
Description: Polarographic / gas chromatographic assay of the complete (reconstituted) methane monooxygenase. To be noted: catalytic cycles per second per molecule.

Substrate in data set [2]: c1ccoc1
Put plainly: purified protein, by the assay type. To be noted: other: complete methane monooxygenase, polarographic assay; pH 7.0; 30.0 °C.

Consider `c1ccoc1` [furan], for which the “turnover number relative to the hydroxylase” value in data set [1] is on record as 7.6 S^-1.

B1: Methylosinus trichosporium OB3b soluble methane monooxygenase, complete system (hydroxylase, component B, reductase) (Methylosinus trichosporium) (protein)
chain: T1 sequence (P27353 1-526)
In the case of B1, the Km in data set [2] turned out to be 20 µM.

Source of the values: patent publication US5190870A, “Method for oxidizing hydrocarbons with a hydroxylase from a methane monooxygenase” (Amoco Corporation, priority 1990, dated 1993).
